Test results: paper PMC2662387 (Journal of medicinal chemistry, 2008)

Legend:
[1] = target: T1, D3 receptor (Rattus norvegicus, UniProt P19020); type: in vivo; conditions: rats
[2] = target: D2 receptor (Rattus norvegicus, UniProt P61169); experiment: Hypothermia in rats; type: in vivo; conditions: for Induction of hypothermia: compound alone
[3] = target: T1, D3 receptor; experiment: D3 receptor binding assay, [3H]PD128907, rat brain; conditions: for Fold less potent than 6 at the D3 receptor: relative to compound 6
[4] = Aqueous solubility; type: physicochemical

T1 sequence (P19020 whole entry): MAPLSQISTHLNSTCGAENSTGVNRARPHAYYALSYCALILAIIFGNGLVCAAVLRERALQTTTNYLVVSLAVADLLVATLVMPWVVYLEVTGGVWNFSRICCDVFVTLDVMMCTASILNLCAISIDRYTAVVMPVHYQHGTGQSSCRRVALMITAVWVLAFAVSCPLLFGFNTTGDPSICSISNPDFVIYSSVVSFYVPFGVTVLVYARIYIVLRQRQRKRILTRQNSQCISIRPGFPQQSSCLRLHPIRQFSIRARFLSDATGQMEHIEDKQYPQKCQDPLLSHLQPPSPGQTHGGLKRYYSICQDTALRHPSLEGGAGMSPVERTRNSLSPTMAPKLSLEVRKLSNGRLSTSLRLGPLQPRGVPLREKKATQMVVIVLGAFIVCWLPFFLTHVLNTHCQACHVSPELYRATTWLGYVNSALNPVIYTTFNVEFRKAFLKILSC
Chain of D2 receptor (P61169 whole entry): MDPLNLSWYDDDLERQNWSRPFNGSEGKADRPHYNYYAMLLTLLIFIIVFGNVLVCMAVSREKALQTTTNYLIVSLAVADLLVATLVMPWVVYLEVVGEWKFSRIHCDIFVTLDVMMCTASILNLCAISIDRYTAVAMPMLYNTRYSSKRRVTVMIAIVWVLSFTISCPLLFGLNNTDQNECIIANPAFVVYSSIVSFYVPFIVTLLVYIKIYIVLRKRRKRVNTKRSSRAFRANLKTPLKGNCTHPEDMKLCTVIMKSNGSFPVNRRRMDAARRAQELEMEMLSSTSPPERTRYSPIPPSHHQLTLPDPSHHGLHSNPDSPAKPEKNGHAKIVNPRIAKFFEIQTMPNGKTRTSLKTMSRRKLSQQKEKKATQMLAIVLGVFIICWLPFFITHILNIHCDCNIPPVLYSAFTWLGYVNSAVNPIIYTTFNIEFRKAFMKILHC

| SMILES | Induction of hypothermia [2] | Aqueous solubility (in words) [4] | also measured |
| --- | --- | --- | --- |
| CCCN[C@H]1CCc2nc(N)sc2C1 [Compound 1, pramipexole, reference compound] | induction of hypothermia occurring at higher doses |  | Induction of yawning ([1]; compound alone, dose-response): increases in yawning were observed over low doses (0.01 to 0.1 mg/kg); In vivo functional profile at D3 and D2 receptors ([1]; concluded from yawning and hypothermia assays): preferential D3 agonist in vivo and a D2 agonist at higher doses |
| COc1ccc2c(c1)CC[C@@H]1CN(CC[C@H]3CC[C@H](NC(=O)c4ccc5ccccc5c4)CC3)CCN21 [Compound 4, reference compound] |  | poor aqueous solubility | Selectivity D1-like/D3 ([3]; ratio of Ki values): >5000 fold; Selectivity D2-like/D3 ([3]; ratio of Ki values, high affinity D2 component where 2-site fit): >1000 fold |
| CCCN(CCCCNC(=O)c1ccc2ccccc2c1)[C@H]1CCc2nc(N)sc2C1 [Compound 5] | hypothermia was induced by 5 at higher doses | good aqueous solubility |  |
| CCCN(CC[C@H]1CC[C@H](NC(=O)c2ccc3ccccc3c2)CC1)[C@H]1CCc2nc(N)sc2C1.Cl.Cl [Compound 6] | failed to induce changes in body temperature over the initial hour of observation | good aqueous solubility |  |
| CC(C)CCN(CC[C@H]1CC[C@H](NC(=O)c2ccc3ccccc3c2)CC1)[C@H]1CCc2nc(N)sc2C1 [Compound 8] |  |  | Fold less potent than 6 at the D3 receptor [3]: 5 times |
| Nc1nc2c(s1)C[C@@H](NCC[C@H]1CC[C@H](NC(=O)c3ccc4ccccc4c3)CC1)CC2 [Compound 10] |  |  | Fold less potent than 6 at the D3 receptor [3]: 19 times |
| CCCN(CC[C@H]1CC[C@H](NC(=O)/C=C/c2ccccc2)CC1)[C@H]1CCc2nc(N)sc2C1 [Compound 12] | failed to induce changes in body temperature over the initial hour of observation | good aqueous solubility | Effect on compound 1-induced hypothermia ([2]; pretreatment with 12): failed to alter the induction of hypothermia by 1 |
